Results: the PolyMetriX glass transition set
± gives the standard deviation of the reports.

In order of falling glass transition temperature:
1. *c1ccc(-c2ccc(N3C(=O)c4cc5c(cc4C3=O)C(C(F)(F)F)(C(F)(F)F)c3cc4c(cc3O5)C(=O)N(*)C4=O)cc2C(F)(F)F)c(C(F)(F)F)c1 (repeat unit)  420.00 °C
2. *c1c(C)c(C)c(N2C(=O)c3cc4c(cc3C2=O)C(c2ccccc2)(C(F)(F)F)c2cc3c(cc2O4)C(=O)N(*)C3=O)c(C)c1C (repeat unit)  394.00 °C
3. *C(=O)c1ccc2c(c1)C(=O)N(c1c(C)cc(CC)c(N3C(=O)c4ccc(*)cc4C3=O)c1CC)C2=O (repeat unit)  385.00 °C
4. *c1ccc(-c2ccc(N3C(=O)c4cc5c(cc4C3=O)C(C(F)(F)F)(C(F)(F)F)c3cc4c(cc3O5)C(=O)N(*)C4=O)cc2OC(F)(F)F)c(OC(F)(F)F)c1 (repeat unit)  375.00 °C
5. *c1ccc2c(c1)C(=O)N(c1c(F)c(F)c(-c3c(F)c(F)c(N4C(=O)c5ccc(C(*)(C(F)(F)F)C(F)(F)F)cc5C4=O)c(F)c3F)c(F)c1F)C2=O (repeat unit)  374.50 ± 15 °C
6. *c1ccc(Cc2ccc(-n3c(=O)c4ccc5c(=O)n(*)c(=O)c5c4c3=O)c(C)c2)cc1C (repeat unit)  354.00 °C
7. *c1ccc2c(c1)C(=O)N(c1ccc(P(=O)(c3ccccc3)c3ccc(N4C(=O)c5ccc(C(*)(C(F)(F)F)C(F)(F)F)cc5C4=O)cc3)cc1)C2=O (repeat unit)  345.00 °C
8. *Sc1cccc2c1C(=O)N(c1ccc(N3C(=O)c4cccc(*)c4C3=O)cc1)C2=O (repeat unit)  330.00 °C
9. *Sc1ccc2c(c1)C(=O)N(c1ccc(N3C(=O)c4cccc(*)c4C3=O)cc1)C2=O (repeat unit)  319.50 ± 0.7 °C
10. *c1ccc2c(c1)C(=O)N(c1ccc(-c3ccc(N4C(=O)c5ccc(C(*)(C(F)(F)F)C(F)(F)F)cc5C4=O)cc3I)c(I)c1)C2=O (repeat unit)  319.00 °C
11. *Oc1c(F)c(F)c(Oc2c(F)c(F)c3c(c2F)C(=O)N(c2ccc(-c4ccc(N5C(=O)c6c(F)c(*)c(F)c(F)c6C5=O)cc4C(F)(F)F)c(C(F)(F)F)c2)C3=O)c(F)c1F (repeat unit)  312.00 °C
12. *Oc1ccc2c(c1)C(=O)N(c1ccc(P(=O)(c3ccccc3)c3ccc(N4C(=O)c5ccc(*)cc5C4=O)cc3)cc1)C2=O (repeat unit)  311.00 °C
13. *c1cccc2c1C(=O)N(c1ccc(C3(c4ccc(N5C(=O)c6cccc(*)c6C5=O)c(C)c4)CCCCC3)cc1C)C2=O (repeat unit)  302.50 ± 3.5 °C
14. *C(=O)c1ccc2c(c1)C(=O)N(c1ccccc1Oc1ccccc1N1C(=O)c3ccc(*)cc3C1=O)C2=O (repeat unit)  289.00 °C
15. *C(=O)c1ccc2c(c1)C(=O)N(c1ccc(C(=O)c3ccccc3N3C(=O)c4ccc(*)cc4C3=O)cc1)C2=O (repeat unit)  289.00 °C
16. *Sc1cccc2c1C(=O)N(c1ccc(Oc3ccc(N4C(=O)c5cccc(*)c5C4=O)cc3)cc1)C2=O (repeat unit)  287.00 ± 8.5 °C
17. *c1ccc2c(c1)C(=O)N(c1ccc(-c3ccc(N4C(=O)c5ccc(C(*)(C(F)(F)F)C(F)(F)F)cc5C4=O)cc3-c3ccc(C)cc3)c(-c3ccc(C)cc3)c1)C2=O (repeat unit)  286.00 °C
18. *C(=O)Nc1ccc2ccccc2c1-c1c(NC(=O)c2ccc3c(c2)C(=O)N(c2ccc(Cc4ccc(N5C(=O)c6ccc(*)cc6C5=O)cc4)cc2)C3=O)ccc2ccccc12 (repeat unit)  285.40 °C
19. *c1ccc2c(c1)C(=O)N(c1ccc(-c3ccc(N4C(=O)c5ccc(C(*)(C(F)(F)F)C(F)(F)F)cc5C4=O)cc3-c3ccc(-c4ccccc4)cc3)c(-c3ccc(-c4ccccc4)cc3)c1)C2=O (repeat unit)  285.00 °C
20. *Oc1ccc2c(c1)C(=O)N(c1cc(N3C(=O)c4ccc(*)cc4C3=O)cc(C(F)(F)F)c1)C2=O (repeat unit)  274.00 °C
21. *Oc1cccc2c1C(=O)N(c1ccc(Oc3ccc(Oc4cccc(N5C(=O)c6cccc(*)c6C5=O)c4)cc3)cc1)C2=O (repeat unit)  263.00 °C
22. *C(=O)c1ccc2c(c1)C(=O)N(c1cc(N3C(=O)c4ccc(*)cc4C3=O)ccc1OCC(F)(F)C(F)(F)C(F)(F)F)C2=O (repeat unit)  262.00 °C
23. *Oc1ccc2c(c1)C(=O)N(c1ccc(Oc3c(C)cc(Oc4ccc(N5C(=O)c6ccc(*)cc6C5=O)cc4)c(C)c3C)cc1)C2=O (repeat unit)  261.00 °C
24. *Sc1ccc2c(c1)C(=O)N(c1cc(Cc3ccc(N4C(=O)c5cccc(*)c5C4=O)c(C)c3)ccc1C)C2=O (repeat unit)  257.50 ± 11 °C
25. *C(=O)Oc1ccc2ccccc2c1-c1c(OC(=O)c2ccc3c(c2)C(=O)N(c2ccc(Oc4ccc(N5C(=O)c6ccc(*)cc6C5=O)cc4)cc2)C3=O)ccc2ccccc12 (repeat unit)  257.00 °C
26. *Oc1ccc(Oc2ccc3c(c2)C(=O)N(c2ccc(Oc4ccc5ccccc5c4-c4c(Oc5ccc(N6C(=O)c7ccc(*)cc7C6=O)cc5C(F)(F)F)ccc5ccccc45)c(C(F)(F)F)c2)C3=O)cc1 (repeat unit)  256.00 °C
27. *c1cccc(Oc2ccc(P(=O)(c3ccccc3)c3ccc(Oc4ccc(-n5c(=O)c6cc7c(=O)n(*)c(=O)c7cc6c5=O)cc4)cc3)cc2)c1 (repeat unit)  254.00 °C
28. *c1ccc2c(c1)C(=O)N(c1cccc(Oc3cccc(N4C(=O)c5cccc(*)c5C4=O)c3)c1)C2=O (repeat unit)  245.00 ± 1.5 °C
29. *Oc1ccc2c(c1)C(=O)N(c1ccc(Oc3ccc(Oc4ccc(N5C(=O)c6ccc(*)cc6C5=O)cc4)cc3C(C)(C)C)cc1)C2=O (repeat unit)  240.00 °C
30. *Oc1cccc(Oc2ccc(Oc3cccc4c3C(=O)N(c3ccc(Oc5ccc(N6C(=O)c7cccc(*)c7C6=O)cc5)cc3)C4=O)cc2)c1 (repeat unit)  239.00 °C
31. *C(=O)c1ccc2c(c1)C(=O)N(c1cccc(Oc3ccc(P(=O)(c4ccccc4)c4ccc(Oc5ccc(N6C(=O)c7ccc(*)cc7C6=O)cc5)cc4)cc3)c1)C2=O (repeat unit)  232.00 °C
32. *C(=O)c1ccc2c(c1)C(=O)N(c1cc(N3C(=O)c4ccc(*)cc4C3=O)ccc1OCC(F)(F)C(F)(F)C(F)(F)C(F)(F)C(F)(F)C(F)(F)F)C2=O (repeat unit)  229.00 °C
33. *c1ccc2c(c1)C(=O)N(c1ccc(OCC(F)(F)C(F)(F)C(F)(F)C(F)(F)C(F)(F)C(F)(F)F)c(N3C(=O)c4ccc(C(*)(C(F)(F)F)C(F)(F)F)cc4C3=O)c1)C2=O (repeat unit)  228.00 °C
34. *Oc1ccc(C(c2ccc(Oc3ccc4c(c3)C(=O)N(c3ccc(Cc5ccc(N6C(=O)c7ccc(*)cc7C6=O)cc5)cc3)C4=O)cc2)(C(F)(F)F)C(F)(F)F)cc1 (repeat unit)  227.00 ± 4.2 °C
35. *C(=O)c1ccc2c(c1)C(=O)N(c1cc(N3C(=O)c4ccc(*)cc4C3=O)ccc1OCC(F)(F)C(F)(F)C(F)(F)C(F)(F)C(F)(F)C(F)(F)C(F)(F)F)C2=O (repeat unit)  223.00 °C
36. *Oc1cccc(S(=O)(=O)c2ccc(Oc3cccc4c3C(=O)N(c3ccc(Oc5cccc(Oc6ccc(N7C(=O)c8cccc(*)c8C7=O)cc6)c5)cc3)C4=O)cc2)c1 (repeat unit)  216.00 °C
37. *C1=C(Cl)C(=O)N(c2ccc(Cc3ccc(N4C(=O)C(Cl)=C(Oc5c(Cl)cc(C(C)(C)c6cc(Cl)c(*)c(Cl)c6)cc5Cl)C4=O)cc3)cc2)C1=O (repeat unit)  200.00 °C
38. *CC(N1C(=O)c2ccccc2C1=O)n1c(=O)c2cc3c(=O)n(*)c(=O)c3cc2c1=O (repeat unit)  190.00 °C
39. *C1=C(Cl)C(=O)N(c2cccc(N3C(=O)C(Cl)=C(Oc4ccc(C(C)(C)c5ccc(*)cc5)cc4)C3=O)c2)C1=O (repeat unit)  163.00 °C
40. *Oc1ccc(C(c2ccc(Oc3cccc4c3C(=O)N(CCCCCCCCN3C(=O)c5cccc(*)c5C3=O)C4=O)cc2)(C(F)(F)F)C(F)(F)F)cc1 (repeat unit)  135.00 °C

remark: another data set of the same source

In order of rising glass transition temperature:
1. *C=Cc1cc(OC)c(*)cc1OCCC(C)CCCC(C)C (repeat unit)  50.00 °C
2. *c1ccc(-c2ccc(OCCCCCCCCCC)c(-c3cc(*)ccc3OCCCCCCCCCC)c2)cc1 (repeat unit)  58.00 °C
3. *C=Cc1cc(OC)c(*)cc1OCC(CC)CCCC (repeat unit)  66.00 °C
4. *c1ccc2c3ccc(-c4sc(-c5ccc(-c6cc(CCCCCC)c(*)s6)c6nsnc56)cc4CCCCCC)cc3n(C(CCCCCCCC)CCCCCCCC)c2c1 (repeat unit)  74.00 °C
5. *c1ccc2c(c1)C(CCCCCCCC)(CCCCCCCC)c1cc(-c3ccc(-c4ccc(-c5ccc(*)s5)c5cc(-c6ccccc6)c(-c6ccccc6)nc45)s3)ccc1-2 (repeat unit)  142.00 °C
6. *c1ccc(-c2ccc(OCCCC)c(-c3cc(*)ccc3OCCCC)c2)cc1 (repeat unit)  164.00 °C
